Results from paper PMC5988755, “First characterization of a microsporidial triosephosphate isomerase and the biochemical mechanisms of its inactivation to propose a new druggable target” (Scientific Reports, 2018).

Tests used:
[1] = target: T1, EiTIM (triosephosphate isomerase of E. intestinalis) (Encephalitozoon intestinalis, UniProt E0SA87); assay: residual activity after incubation, alpha-GDH coupled assay (NADH, […] nm); format: biochemical; details: read-out: 50% inactivation
T1 construct: gene Eint_110100; full length, synthetic codon-optimised gene (silent A479G) in pET-3aHisTEV, E. coli BL21(DE3)pLysS; N-terminal His-tag removed with TEV protease; homodimer
T1 sequence (E0SA87 1-242): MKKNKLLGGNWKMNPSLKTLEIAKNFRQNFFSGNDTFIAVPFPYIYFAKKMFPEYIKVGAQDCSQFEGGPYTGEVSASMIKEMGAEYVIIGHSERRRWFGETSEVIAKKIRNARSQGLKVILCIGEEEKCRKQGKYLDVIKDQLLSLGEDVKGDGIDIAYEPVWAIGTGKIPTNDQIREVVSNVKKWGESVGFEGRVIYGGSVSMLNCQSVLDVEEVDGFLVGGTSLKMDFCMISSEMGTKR

[2] = target: T1, EiTIM (triosephosphate isomerase of E. intestinalis); assay: as above; format: biochemical; details: covalent; 0.5 mM compound, 2 h at 37 °C; residual activity relative to untreated control; 3 Cys derivatized per subunit
[3] = target: T1, EiTIM (triosephosphate isomerase of E. intestinalis); assay: thermal denaturation by CD at […] nm of derivatized enzyme; format: binding; details: covalent; 0.5 mM compound, 2 h at 37 °C, excess removed; untreated control Tm 52.8 ± 1.5 °C
[4] = target: T1, EiTIM (triosephosphate isomerase of E. intestinalis); assay: residual activity after incubation, alpha-GDH coupled assay (NADH, […] nm); format: biochemical; details: covalent (Cys derivatization suggested), 0.5 mg/mL enzyme, 2 h at 37 °C, drug 0-50 μM
[5] = substrate: O=C[C@H](O)COP(=O)(O)O; assay: purified protein; details: GAP to DHAP direction, 25 °C, 0.2 mM NADH, 0.9 U alpha-GDH, GAP 0.2-10 mM

CC(=C(CCOC(=O)C(C)C)SSC(CCOC(=O)C(C)C)=C(C)N(C=O)Cc1cnc(C)nc1N)N(C=O)Cc1cnc(C)nc1N (stereo in doubt) [sulbutiamine]
IC50 [1]: 2.5 µM

O=C(O)c1cc(SSc2ccc([N+](=O)[O-])c(C(=O)O)c2)ccc1[N+](=O)[O-] [DTNB, 5,5′-dithiobis(2-nitrobenzoic acid)]
IC50 [1]: 25 µM

CSS(C)(=O)=O [MMTS]
Activity (%)^* [2]: 17.3 ± 5.5%
Tm (°C)^* [3]: 49.8 ± 2.1 °C

CS(=O)(=O)SCCS(=O)(=O)O [MTSES, sodium (2-sulfonatoethyl) methanethiosulfonate]
Activity (%)^* [2]: 2.4 ± 1.1%
Tm (°C)^* [3]: 48.6 ± 1.9 °C

COc1ccc2[nH]c([S+]([O-])Cc3ncc(C)c(OC)c3C)nc2c1 (centres unmarked) [omeprazole]
50% inactivation ([4]; omeprazole pre-activated with acid (HCl, 3 h)): sulbutiamine was two- and three-fold more effective than rabeprazole and omeprazole, respectively

COCCCOc1ccnc(C[S+]([O-])c2nc3ccccc3[nH]2)c1C (centres unmarked) [rabeprazole]
50% inactivation [4]: sulbutiamine was two- and three-fold more effective than rabeprazole and omeprazole, respectively

B1: EiTIM (triosephosphate isomerase of E. intestinalis) (Encephalitozoon intestinalis ATCC 50506) (protein)
chain: MKKNKLLGGNWKMNPSLKTLEIAKNFRQNFFSGNDTFIAVPFPYIYFAKKMFPEYIKVGAQDCSQFEGGPYTGEVSASMIKEMGAEYVIIGHSERRRWFGETSEVIAKKIRNARSQGLKVILCIGEEEKCRKQGKYLDVIKDQLLSLGEDVKGDGIDIAYEPVWAIGTGKIPTNDQIREVVSNVKKWGESVGFEGRVIYGGSVSMLNCQSVLDVEEVDGFLVGGTSLKMDFCMISSEMGTKR
Km [5]: 830 ± 200 µM
kcat [5]: 1680 s⁻¹
kcat/Km [5]: 2e+06 M⁻¹ s⁻¹
